Experiments:
[1] = test system: DU-145; assay: Cytotoxicity testing (Example 7), MTS, DU-145; assay type: cell-based; details: for DU145 % Cell#: five days, MTS
Description: (§1) Cytotoxicity Studies were done in DU-145 and MCF-7 Cells. […] We set out to test the efficacy of these compounds based on known affinities for ER-α previously reported. Cells were treated for five days with 1 mM of each compound in a defined media. Cell number was estimated by the MTS method. Similar studies were carried out in the MCF-7 cell line known to express both ER-α and -β, and display proliferative properties in the presence of classic estrogens.

[2] = test system: MCF-7; assay: Cytotoxicity testing (Example 7), MTS, MCF-7; assay type: cell-based
Description: as §1

[3] = test system: NCR nude mice; details: 5 to 40 mg/kg/day bolus IM injection, 40-day period
Description: Doses included 5 to 40 mg/kg/day bolus IM injection. Toxicity effects were gauged based on changes in animal weight and gross analysis of specific organs including liver, lung, prostate, brain, spleen, heart, and kidney, collected, and fixed in paraffin sections.

[4] = test system: DU145, PC3, and LNCaP cell lines; assay: MTS assay, values averaged or stated over the CaP cell lines; assay type: cell-based; details: average
Description: (§2) DU145, LNCaP, PC3, and MCF-7 cells were obtained from the American Type Culture Collection (Manassas, Va.). DU145, PC3, and MCF-7 cells were maintained in Dulbecco's modified Eagle's medium/F-12 supplemented with 5% heat inactivated Fetal Calf Serum and Penicillin/Streptomycin (Invitrogen Life Technologies, Carlsbad, Calif.). LNCaP cells were maintained in RPMI 1640 medium supplemented in the same fashion. Cells were cultured in 75 cm^2 flasks (Falcon, BD Biosciences, Bedford, Mass.) at 37° C. and 5% CO2. For the MTS assay (Example 3), five thousand cells were plated in each well of a 24 well plate (Falcon), were allowed to attach for a 48-hour period in the media described, and changed to a defined medium, (DMEM/F-12 or RPMI1640) supplemented with insulin (BD Biosciences). A 1000× solution of the compound of interest solubilized in DMSO (Sigma, Saint Louis, Mo.) was diluted in the defined media just prior to starting each experiment, and media was refreshed every 48 to 72 hours throughout the experiments.
(§3) . Upon completing five days of treatment, the medium in each well was exchanged for 400 μL of an MTS solution (3-(4,5-dimethylthiazol-2-yl)-5-(3-carboxymethoxyphenyl)-2-(4-sulfophenyl)-2H-tetrazolium, inner salt; O'Toole SA, 2003, Cancer Detect Prev., 2003;27(1):47-54) spiked into media as per the manufacture's instructions (Promega, Madison, Wis.) and incubated for 2 hours at 37° C. before reading the absorbance on the μQuant UV/VIS plate reader, in conjunction with KCjunior Software (Bio-Tek Instruments, Winooski, Vt.) set at 490 nm. All experiments were carried out in quadruplicate, control wells were treated with the carrier DMSO. E2, which is estradiol-17β (Steraloids®, Newport, R.I.) and resveratrol (Sigma) were used as controls. […]

[5] = test system: DU145; assay: MTS cell viability assay in DU145; assay type: cell-based; details: DU145, concentrations above 1 μM
Description: as §2, §3

[6] = Table 3, 1 mM of each compound, defined media
[7] = Table 3, five days, 1 mM of each compound, defined media
[8] = Table 4 comparative study, 1 mM
[9] = Table 4 comparative study, five days, 1 mM

| SMILES | DU145 % Cell# [1, 6] | MCF-7 % Cell# [2, 7] | DU145 % Cell# [1, 8] | MCF-7 % Cell# [2, 9] | other results |
| --- | --- | --- | --- | --- | --- |
| CC12CCC3c4ccc(O)cc4CCC3C1CCC2(O)C=Cc1ccccc1 (stereo not shown) [Compound 1] | 62% | 22% | – | – | – |
| CC12CCC3c4ccc(O)cc4CCC3C1CCC2(O)C=Cc1ccccc1F (stereo not shown) [Compound 2] | 80% | 40% | – | – | – |
| Cc1ccc(C=CC2(O)CCC3C4CCc5cc(O)ccc5C4CCC32C)cc1 (stereo not shown) [Compound 3] | 33% | 23% | – | – | – |
| COC(=O)c1ccc(C=CC2(O)CCC3C4CCc5cc(O)ccc5C4CCC32C)cc1 (stereo not shown) [Compound 4] | 100% | 28% | – | – | – |
| Cc1cccc(C=CC2(O)CCC3C4CCc5cc(O)ccc5C4CCC32C)c1 (stereo not shown) [Compound 5] | 9% | 24% | – | – | overall result in cytotoxicity testing (Table 3) [1]: good results |
| CC12CCC3c4ccc(O)cc4CCC3C1CCC2(O)C=Cc1ccc(F)cc1 (stereo not shown) [Compound 6] | 67% | 28% | – | – | – |
| CC12CCC3c4ccc(O)cc4CCC3C1CCC2(O)C=Cc1ccc(C(=O)O)cc1 (stereo not shown) [Compound 8] | 99% | 120% | – | – | – |
| CC12CCC3c4ccc(O)cc4CCC3C1CCC2(O)C=Cc1ccc(F)cc1 (stereo not shown) [Compound 9] | 17% | 27% | – | – | overall result in cytotoxicity testing (Table 3) [1]: good results |
| CC12CCC3c4ccc(O)cc4CCC3C1CCC2(O)C=Cc1ccc(C#N)cc1 (stereo not shown) [Compound 10] | 92% | 23% | – | – | – |
| COc1ccc(C=CC2(O)CCC3C4CCc5cc(O)ccc5C4CCC32C)cc1 (stereo not shown) [Compound 11] | 60% | 28% | – | – | – |
| COC(=O)c1ccccc1C=CC1(O)CCC2C3CCc4cc(O)ccc4C3CCC21C (stereo not shown) [Compound 12] | 92% | 30% | – | – | – |
| C=CC1(O)CCC2C3CCc4cc(O)ccc4C3CCC21C (stereo not drawn) [Compound 13, 17α-vinyl-E2, reference compound] | 98% | 53% | – | – | – |
| COC(=O)c1ccc(C=CC2(O)CCC3C4CCc5cc(O)ccc5C4CCC32C)cc1 (stereo not shown) [Compound 15] | 92% | 32% | – | – | – |
| CC12CCC3c4ccc(O)cc4CCC3C1CCC2(O)C=Cc1ccccc1CO (stereo not shown) [Compound 16] | 105% | 55% | – | – | – |
| CC12CCC3c4ccc(O)cc4CCC3C1CCC2(O)C=Cc1ccccc1C(F)(F)F (stereo not shown) [Compound 19] | 5% | 20% | – | – | overall result in cytotoxicity testing (Table 3) [1]: good results |
| CC12CCC3c4ccc(O)cc4CCC3C1CCC2(O)C=Cc1ccccc1CO (stereo not shown) [Compound 20] | 97% | 24% | – | – | – |
| CC12CCC3c4ccc(O)cc4CCC3C1CCC2(O)C=CBr (stereo not drawn) [Compound 22, 17α-Br-vinyl-E2, reference compound] | 91% | 59% | – | – | – |
| CC12CCC3c4ccc(O)cc4CCC3C1CCC2(O)C=Cc1cccc(C(F)(F)F)c1 (stereo not shown) [Compound 23] | 5% | 19% | – | – | overall result in cytotoxicity testing (Table 3) [1]: good results |

| SMILES | DU145 % Cell# [1, 6] | MCF-7 % Cell# [2, 7] | DU145 % Cell# [1, 8] | MCF-7 % Cell# [2, 9] | other results |
| --- | --- | --- | --- | --- | --- |
| CC12CCC3c4ccc(O)cc4CCC3C1CCC2(O)C=Cc1ccccc1C(=O)O (stereo not shown) [Compound 24] | 103% | 61% | – | – | – |
| CC12CCC3c4ccc(O)cc4CCC3C1CCC2(O)C=Cc1ccc(C(F)(F)F)cc1 (stereo not shown) [Compound 25] | 5% | 13% | – | – | overall result in cytotoxicity testing (Table 3) [1]: good results; general toxicity (animal weight, gross analysis of organs) [3]: No apparent detrimental effects |
| C[C@]12C[C@H](c3ccc(OCCCCCS(=O)(=O)CCCC(F)(F)C(F)(F)F)cc3)[C@@H]3c4ccc(O)cc4CC[C@H]3[C@@H]1CC[C@@H]2O [Compound 26, RU 58668, reference compound] | – | – | 73% | 37% | – |
| CC/C(=C(\c1ccccc1)c1ccc(OCCN(C)C)cc1)c1ccccc1 [Compound 27, ICI 47, 699, reference compound] | – | – | 12% | 21% | – |
| C[C@]1(O)CC[C@H]2[C@@H]3CCC4=CC(=O)CCC4=C3C=C[C@@]21C [Compound 29, RU 1881, reference compound] | – | – | 99% | 94% | – |
| CC/C(=C(\c1ccccc1)c1ccc(OCCN(C)C)cc1)c1ccccc1.O=C(O)CC(O)(CC(=O)O)C(=O)O [Compound 30, TAM Citr, reference compound] | – | – | 47% | 33% | – |
| CN(C)CCOc1ccc([C@H]2C[C@]3(C)[C@@H](O)CC[C@H]3[C@@H]3CCc4cc(O)ccc4[C@H]32)cc1 [Compound 31, RU 39411, reference compound] | – | – | 102% | 102% | – |
| C[C@]12CC[C@@H]3c4ccc(O)cc4C[C@@H](CCCCCCCCC[S+]([O-])CCCC(F)(F)C(F)(F)F)[C@H]3[C@@H]1CC[C@@H]2O (stereo partly shown) [Compound 32, ICI-182780, reference compound] | – | – | 94% | 62% | – |
| CC/C(=C(\c1ccccc1)c1ccc(OCCN(C)C)cc1)c1ccccc1 [Compound 33, Z-TAM, reference compound] | – | – | 56% | 25% | – |
| COc1ccc2c(c1)CCC(c1ccccc1)=C2c1ccc(OCCN2CCCC2)cc1.Cl [Compound 34, 4-11, 100A, reference compound] | – | – | 29% | 32% | – |
| C#C[C@]1(O)CC[C@H]2[C@@H]3CCC4=Cc5oncc5C[C@]4(C)[C@H]3CC[C@@]21C [Compound 35, Danazol, reference compound] | – | – | 92% | 107% | – |
| C#C[C@]1(O)CC[C@H]2[C@@H]3CCc4cc(O)ccc4[C@H]3[C@H](OC)C[C@@]21C [Compound 37, RU16117, reference compound] | – | – | 101% | 103% | – |
| CC12CCC3c4ccc(O)cc4CCC3C1CCC2(O)C=Cc1ccc([N+](=O)[O-])cc1 (stereo not shown) [Compound 46] | 44% | 35% | – | – | – |
| CC12CCC3c4ccc(O)cc4CCC3C1CCC2(O)C=Cc1ccccc1 (stereo not shown) [Compound 48] | 47% | 27% | – | – | – |
| CC12CCC3c4ccc(O)cc4CCC3C1CCC2(O)C=Cc1ccccc1[N+](=O)[O-] (stereo not shown) [Compound 49] | 17% | 29% | – | – | – |
| C[C@]12CC[C@@H]3c4ccc(O)cc4CC[C@H]3[C@@H]1CC[C@@H]2O [Compound E2, estradiol-17β, reference compound] | 100% | 90% | 100% | 90% | difference in cell number over non-treated cells ([4]; negative control): 0±3.4%; cytotoxic or proliferative effects [5]: no apparent cytotoxic or proliferative effects |
| Oc1ccc(C=Cc2cc(O)cc(O)c2)cc1 [resveratrol] | – | – | – | – | decrease in cell number ([4]; positive control): 65±5.3% |
